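Following 48 hours of exposure in 96-well plates, responses at five concentrations were used to interpolate endpoints linearly. GI50 marks 50% less growth.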 The source made the active and inactive calls. Rule as the data show it: active = GI50 up to about 1.1 µM and inactive = higher.
Key:
Test in all cases: inhibition of tumour cell growth, NCI panel, 48 h
Malme-3M = tested on: Malme-3M
MDA-N = tested on: MDA-N
A549 = tested on: A549
HCT-15 = tested on: HCT-15
RPMI-8226 = tested on: RPMI-8226
NCI-H226 = tested on: NCI-H226
UO-31 = tested on: UO-31
SR = tested on: SR
M14 = tested on: M14
HCC 2998 = tested on: HCC 2998
SK-MEL-28 = tested on: SK-MEL-28
MCF7 = tested on: MCF7
OVCAR-3 = tested on: OVCAR-3
KM12 = tested on: KM12
K562 = tested on: K562
CCRF-CEM = tested on: CCRF-CEM
LOX IMVI = tested on: LOX IMVI
SK-MEL-5 = tested on: SK-MEL-5
NCI-H460 = tested on: NCI-H460
NCI-H522 = tested on: NCI-H522
SW-620 = tested on: SW-620
UACC-257 = tested on: UACC-257
HL-60 = tested on: HL-60
MDA-MB-231 = tested on: MDA-MB-231
ACHN = tested on: ACHN
U-251 = tested on: U-251
OVCAR-5 = tested on: OVCAR-5
786-0 = tested on: 786-0
SK-MEL-2 = tested on: SK-MEL-2
OVCAR-4 = tested on: OVCAR-4
HT-29 = tested on: HT-29
RXF 393 = tested on: RXF 393
OVCAR-8 = tested on: OVCAR-8
DU-145 = tested on: DU-145
SNB-75 = tested on: SNB-75
T47D = tested on: T47D
TK-10 = tested on: TK-10
SF-268 = tested on: SF-268
SF-295 = tested on: SF-295
MDA-MB-435 = tested on: MDA-MB-435
HOP-92 = tested on: HOP-92
UACC-62 = tested on: UACC-62
BT-549 = tested on: BT-549
SNB-19 = tested on: SNB-19
COLO 205 = tested on: COLO 205
IGROV-1 = tested on: IGROV-1
NCI-H23 = tested on: NCI-H23
Hs-578T = tested on: Hs-578T
SN12C = tested on: SN12C
HOP-62 = tested on: HOP-62
CAKI-1 = tested on: CAKI-1
EKVX = tested on: EKVX
SK-OV-3 = tested on: SK-OV-3
MOLT-4 = tested on: MOLT-4
HCT-116 = tested on: HCT-116
SF-539 = tested on: SF-539
PC-3 = tested on: PC-3
NCI/ADR-RES = tested on: NCI/ADR-RES
A498 = tested on: A498

SMILES: CCOC(=O)c1sc2c(c1O)c(=O)n(-c1ccccc1)c(=S)n2-c1ccccc1
- GI50 (Malme-3M): > 100 µM (inactive)
- GI50 (MDA-N): > 100 µM (inactive)
- GI50 (A549): 55.3 µM (inactive)
- GI50 (HCT-15): 78 µM
- GI50 (RPMI-8226): 28.2 µM (inactive)
- GI50 (NCI-H226): > 100 µM (inactive)
- GI50 (UO-31): 87.3 µM (inactive)
- GI50 (SR): 10.8 µM (inactive)
- GI50 (M14): > 100 µM (inactive)
- GI50 (HCC 2998): > 100 µM (inactive)
- GI50 (SK-MEL-28): > 100 µM (inactive)
- GI50 (MCF7): 67.6 µM (inactive)
- GI50 (OVCAR-3): 51.1 µM (inactive)
- GI50 (KM12): 46.7 µM (inactive)
- GI50 (K562): 42.8 µM (inactive)
- GI50 (CCRF-CEM): 32.7 µM (inactive)
- GI50 (LOX IMVI): > 100 µM (inactive)
- GI50 (SK-MEL-5): > 100 µM (inactive)
- GI50 (NCI-H460): > 100 µM (inactive)
- GI50 (NCI-H522): 46.6 µM (inactive)
- GI50 (SW-620): 99.3 µM (inactive)
- GI50 (UACC-257): > 100 µM (inactive)
- GI50 (HL-60): 35.1 µM (inactive)
- GI50 (MDA-MB-231): > 100 µM (inactive)
- GI50 (ACHN): 81.1 µM (inactive)
- GI50 (U-251): 76.6 µM (inactive)
- GI50 (OVCAR-5): > 100 µM (inactive)
- GI50 (786-0): > 100 µM (inactive)
- GI50 (SK-MEL-2): > 100 µM (inactive)
- GI50 (OVCAR-4): > 100 µM (inactive)
- GI50 (HT-29): 80.5 µM (inactive)
- GI50 (RXF 393): > 100 µM (inactive)
- GI50 (OVCAR-8): 54.7 µM (inactive)
- GI50 (DU-145): 71.8 µM (inactive)
- GI50 (SNB-75): 37.5 µM (inactive)
- GI50 (T47D): > 100 µM (inactive)
- GI50 (TK-10): > 100 µM (inactive)
- GI50 (SF-268): > 100 µM (inactive)
- GI50 (SF-295): 35.5 µM (inactive)
- GI50 (MDA-MB-435): > 100 µM (inactive)
- GI50 (HOP-92): 86.1 µM (inactive)
- GI50 (UACC-62): 84.3 µM (inactive)
- GI50 (BT-549): 56.6 µM (inactive)
- GI50 (SNB-19): > 100 µM (inactive)
- GI50 (COLO 205): > 100 µM (inactive)
- GI50 (IGROV-1): > 100 µM (inactive)
- GI50 (NCI-H23): 91.4 µM (inactive)
- GI50 (Hs-578T): > 100 µM (inactive)
- GI50 (SN12C): 61.1 µM (inactive)

SMILES: C/C(=N/OC(=O)c1cccc2c(=O)c3ccccc3[nH]c12)[C@H]1CC[C@H]2[C@@H]3CCC4=C/C(=N/OC(=O)c5cccc6c(=O)c7ccccc7[nH]c56)CC[C@]4(C)[C@H]3CC[C@]12C
- GI50 (Malme-3M): 22.2 µM (inactive)
- GI50 (MDA-N): 14.1 µM (inactive)
- GI50 (HOP-62): 24.8 µM (inactive)
- GI50 (A549): 25.6 µM (inactive)
- GI50 (HCT-15): 14 µM
- GI50 (RPMI-8226): 2.9 µM (inactive)
- GI50 (NCI-H226): 20 µM (inactive)
- GI50 (UO-31): 15 µM (inactive)
- GI50 (SR): 3.61 µM (inactive)
- GI50 (M14): 14.6 µM (inactive)
- GI50 (CAKI-1): 21.2 µM (inactive)
- GI50 (EKVX): 10.6 µM (inactive)
- GI50 (HCC 2998): 14 µM (inactive)
- GI50 (MCF7): 11.2 µM (inactive)
- GI50 (OVCAR-3): 17.1 µM (inactive)
- GI50 (KM12): 15.2 µM (inactive)
- GI50 (K562): 4.97 µM (inactive)
- GI50 (SK-OV-3): 27 µM (inactive)
- GI50 (MOLT-4): 10.4 µM (inactive)
- GI50 (CCRF-CEM): 2.4 µM (inactive)
- GI50 (LOX IMVI): 12.9 µM (inactive)
- GI50 (SK-MEL-5): 13.1 µM (inactive)
- GI50 (HCT-116): 12.5 µM (inactive)
- GI50 (SF-539): 15.1 µM (inactive)
- GI50 (NCI-H522): 12.3 µM (inactive)
- GI50 (SW-620): 13.9 µM (inactive)
- GI50 (UACC-257): 17.1 µM (inactive)
- GI50 (HL-60): 3.91 µM (inactive)
- GI50 (MDA-MB-231): 14.3 µM (inactive)
- GI50 (ACHN): 16 µM (inactive)
- GI50 (U-251): 15.8 µM (inactive)
- GI50 (OVCAR-5): 17.4 µM (inactive)
- GI50 (PC-3): 10.5 µM (inactive)
- GI50 (786-0): 18.5 µM (inactive)
- GI50 (SK-MEL-2): 12.8 µM (inactive)
- GI50 (OVCAR-4): 34 µM (inactive)
- GI50 (HT-29): 13.5 µM (inactive)
- GI50 (OVCAR-8): 15.7 µM (inactive)
- GI50 (DU-145): 22.7 µM (inactive)
- GI50 (SNB-75): 29.9 µM (inactive)
- GI50 (T47D): 14.5 µM (inactive)
- GI50 (TK-10): 17.8 µM (inactive)
- GI50 (SF-268): 17 µM (inactive)
- GI50 (SF-295): 16.8 µM (inactive)
- GI50 (MDA-MB-435): 15.5 µM (inactive)
- GI50 (HOP-92): 21.3 µM (inactive)
- GI50 (NCI/ADR-RES): 20.4 µM (inactive)
- GI50 (UACC-62): 14.1 µM (inactive)
- GI50 (BT-549): 17.7 µM (inactive)
- GI50 (SNB-19): 18.2 µM (inactive)
- GI50 (COLO 205): 15.8 µM (inactive)
- GI50 (IGROV-1): 14.4 µM (inactive)
- GI50 (NCI-H23): 15.5 µM (inactive)
- GI50 (Hs-578T): 27.7 µM (inactive)
- GI50 (SN12C): 14.7 µM (inactive)

SMILES: O=C1Nc2ccccc2C1S(=O)(=O)c1ccccc1 (stereo not given)
- GI50 (Malme-3M): > 100 µM (inactive)
- GI50 (MDA-N): > 100 µM (inactive)
- GI50 (HOP-62): > 100 µM (inactive)
- GI50 (A549): > 100 µM (inactive)
- GI50 (HCT-15): > 100 µM
- GI50 (RPMI-8226): > 100 µM (inactive)
- GI50 (NCI-H226): > 100 µM (inactive)
- GI50 (UO-31): > 100 µM (inactive)
- GI50 (SR): > 100 µM (inactive)
- GI50 (M14): > 100 µM (inactive)
- GI50 (CAKI-1): > 100 µM (inactive)
- GI50 (EKVX): > 100 µM (inactive)
- GI50 (HCC 2998): > 100 µM (inactive)
- GI50 (SK-MEL-28): > 100 µM (inactive)
- GI50 (OVCAR-3): > 100 µM (inactive)
- GI50 (KM12): > 100 µM (inactive)
- GI50 (K562): > 100 µM (inactive)
- GI50 (SK-OV-3): > 100 µM (inactive)
- GI50 (MOLT-4): > 100 µM (inactive)
- GI50 (CCRF-CEM): > 100 µM (inactive)
- GI50 (LOX IMVI): > 100 µM (inactive)
- GI50 (SK-MEL-5): > 100 µM (inactive)
- GI50 (HCT-116): > 100 µM (inactive)
- GI50 (A498): > 100 µM (inactive)
- GI50 (NCI-H460): > 100 µM (inactive)
- GI50 (NCI-H522): > 100 µM (inactive)
- GI50 (SW-620): > 100 µM (inactive)
- GI50 (UACC-257): > 100 µM (inactive)
- GI50 (MDA-MB-231): > 100 µM (inactive)
- GI50 (ACHN): > 100 µM (inactive)
- GI50 (U-251): > 100 µM (inactive)
- GI50 (OVCAR-5): > 100 µM (inactive)
- GI50 (PC-3): > 100 µM (inactive)
- GI50 (786-0): > 100 µM (inactive)
- GI50 (SK-MEL-2): > 100 µM (inactive)
- GI50 (OVCAR-4): > 100 µM (inactive)
- GI50 (HT-29): > 100 µM (inactive)
- GI50 (RXF 393): > 100 µM (inactive)
- GI50 (OVCAR-8): > 100 µM (inactive)
- GI50 (DU-145): > 100 µM (inactive)
- GI50 (SNB-75): > 100 µM (inactive)
- GI50 (T47D): > 100 µM (inactive)
- GI50 (TK-10): > 100 µM (inactive)
- GI50 (SF-268): > 100 µM (inactive)
- GI50 (SF-295): > 100 µM (inactive)
- GI50 (MDA-MB-435): > 100 µM (inactive)
- GI50 (HOP-92): > 100 µM (inactive)
- GI50 (NCI/ADR-RES): > 100 µM (inactive)
- GI50 (UACC-62): > 100 µM (inactive)
- GI50 (BT-549): > 100 µM (inactive)
- GI50 (SNB-19): > 100 µM (inactive)
- GI50 (COLO 205): > 100 µM (inactive)
- GI50 (IGROV-1): > 100 µM (inactive)
- GI50 (NCI-H23): > 100 µM (inactive)
- GI50 (Hs-578T): > 100 µM (inactive)
- GI50 (SN12C): > 100 µM (inactive)
